Measured values taken from patent publication US20190075796A1, “Increased walnut yields with brassinosteroid application” (priority 2017, published 2019).

Legend:
[1] = tested on: pollen of cv. Chandler; assay: In vitro pollen germination and pollen tube growth; assay type: cell-based, walnut; settings: 20° C.
Method: An in vitro experiment was done to study the effects of the same treatments as Study 1 on pollen of cv. Chandler. The growing media used for pollen germination and tube growth was prepared in Petri dishes, and consisted of a solution of 10% sucrose and 1% agar in 50 mg per liter boric acid, plus either 0.4 ppm HBR, 4.0 ppm HBR, 20 ppm HBR, or 4.0 ppm HBR+10 pm CPPU. The control solution was distilled water. The experimental design was randomized with 4 replications, using Petri dishes as experimental units. Chandler pollen was sown onto the media with a fine brush, and incubated in a growth chamber for 24 hours at 20° C. Observations of pollen germination were done after 12 hours and pollen tube growth after 24 hours respectively. An Olympus CX31 microscope at 40× was used, and photographs were taken with a ProgRes® C3 camera, using the Capture-Pro computational program. The percentage of germination was determined using the GSA Image Analyzer 3.6.5 program, and the pollen tube length with the Qcad program. FIG. 11 is a representative 20× photomicrograph of germinating Chandler pollen.

[2] = tested on: walnut cv. Serr; assay: Foliar spray field trial in a walnut orchard, cv. Serr: fruit set and nut weights; assay type: in vivo; settings: all treatments of HBR except HBR 0.4 ppm
Method: (§1) Testing was conducted in two contiguous walnut orchards located in Pirque, Metropolitan Region of Chile. The first orchard is of cultivar Serr, planted at 11×11 m and 20 years old. The second orchard is of cultivar Chandler, planted at 7×6 m and 5 years old. In the 2014/2015 season yield of cultivar Serr was 4,300 kilograms of walnuts in shells per hectare, and in cultivar Chandler the yield was 2,300 kilograms of walnuts in shells per hectare.
During the 2014/2015 season, four experimental and one control treatments were applied to the Pirque orchard. Treatments were foliar sprays with solutions of Homobrassinolide (HBR) at 0.4, 4.0 and 20 ppm, and HBR 4.0 ppm+CPPU 10 ppm. Control was water. Treatment of each cultivar took place 10 days after said cultivar reached approximately 10% pistillate flower receptive. Each tree was sprayed with approximately 250 ml of solution. At that volume the sprayed leaves and branches are wetted and excess solution is dripping off the tree. Applications were made to small branches having 2 to 4 terminal buds with pistillate flowers, equivalent to 3 to 12 potential fruits per replication. The experimental design was randomized blocks with 10 replications. […]
The measurement of fruit set was determined by the difference between the number of fruit harvested and the number of flowers/fruitlets sprayed in late flowering. […]

[3] = tested on: walnut cv. Chandler; assay: Foliar spray field trial in a walnut orchard, cv. Chandler: fruit set and nut weights; assay type: in vivo
Method: as §1
During the 2014/2015 season, four experimental and one control treatments were applied to the Pirque orchard. Treatments were foliar sprays with solutions of Homobrassinolide (HBR) at 0.4, 4.0 and 20 ppm, and HBR 4.0 ppm+CPPU 10 ppm. Control was water. Treatment of each cultivar took place 10 days after said cultivar reached approximately 10% pistillate flower receptive. Each tree was sprayed with approximately 250 ml of solution. At that volume the sprayed leaves and branches are wetted and excess solution is dripping off the tree. Applications were made to small branches having 2 to 4 terminal buds with pistillate flowers, equivalent to 3 to 12 potential fruits per replication. The experimental design was randomized blocks with 10 replications. Ten trees per cultivar received treatment and all treatments were applied to separate spray targets of each tree. The spray targets included pistillate flowers, catkins and leaves.
Walnut flowering of both cultivars in the season was prolonged and irregular, extending for 2 weeks in each cultivar. Bloom was mainly protandrous with catkins fall of 20-30% during the pistillate flowering period for both cultivars. The vegetative growth was normal. When flowering of cv. Serr reached 10 to 20% of receptivity, Aminoethoxy vinyl-glycine was applied at a concentration of 125 ppm to all conditions to delay ripening.
The measurement of fruit set was determined by the difference between the number of fruit harvested and the number of flowers/fruitlets sprayed in late flowering. After harvest, the nuts from the experiment were dried in laboratory at a temperature of 35° C. for 12 hours, and then the nut shell was removed, measuring the weight of both (in shell and shelled) independently.

CC[C@@H](C(C)C)C(O)C(O)[C@@H](C)[C@H]1CC[C@H]2[C@@H]3COC(=O)[C@H]4C[C@H](O)[C@H](O)C[C@]4(C)[C@H]3CC[C@]12C (stereo in doubt) [HBR, homobrassinolide]
pollen germination versus control ([1]; 0.4 ppm HBR in medium, observed after 12 hours): less than control
pollen germination versus control ([1]; 4.0 ppm HBR in medium, observed after 12 hours): similar
pollen tube growth versus control ([1]; 4.0 ppm HBR in medium, observed after 24 hours): greater than control
pollen germination ([1]; 20 ppm HBR in medium, observed after 12 hours): no germination
final weight of shelled walnuts versus control [2]: greater than control
fruit set, increase with respect to the control ([3]; HBR 0.4 ppm): 6.2%
final weight of walnuts in shell, increase over control ([3]; HBR 4.0 ppm): 16.9%
fruit set, increase with respect to the control ([3]; HBR 4.0 ppm): 5.0%
final weight of walnuts in shell, increase over control ([3]; HBR 20 ppm): 29.6%
fruit set, increase with respect to the control ([3]; HBR 20 ppm): 13.5%
